Patent US20220241255A1, “COMBINATION CONTAINING SGC ACTIVATORS AND MINERALOCORTICOID RECEPTOR ANTAGONISTS” (Bayer Pharma Aktiengesellschaft, priority 2016, published 2022)

Experiments:
[1] = tested on: L-NAME-treated transgenic renin rat (TGR(mRen2)27); assay: All-cause mortality / survival in L-NAME-treated renin transgenic rats; assay type: in vivo; conditions: for Mortality: all-cause mortality during the study period, daily gavage, 15 animals per group, groups and doses per Table 1; for survival rate / animals died during the study period: finerenone 10 mg/kg od, compound of the formula (X) 1 mg/kg bid, alone or combined; for survival rate: over the study period, placebo survival 60%; for animals died during the study period: study terminated after 40% of placebo animals had died
Text: (§1) 3.) L-NAME-treated transgenic renin rat (TGR(mRen2)27)
(§2) The transgenic renin rat ‘TGR(mRen2)27’ is a hypertensive rat line developed by Mullins and Ganten which overexpresses the Ren-2 gene of the mouse. Additional administration of the nitrogen monoxide synthase inhibitor L-NAME induces endothelial dysfunction which increases morbidity and mortality in this model. Unless subjected to life-long antihypertensive therapy, homozygous animals die of secondary complications such as heart and kidney failure or stroke.
(§3) Male TGR(mRen2)27 renin rats aged 10 to 20 weeks are randomized to different pharmacological treatment groups and a placebo group. In addition, the nitrogen monoxide synthase inhibitor L-NAME is administered via the drinking water in a concentration of 30 to 100 mg/l. During the entire experiment, drinking water and feed are available ad libitum to the animals. The substances are administered via the feed or daily by gavage for 4-10 weeks. Animals treated in the same way but receiving either only the solvent or the feed without test substance serve as placebo group. During the experiment, the systolic blood pressure is determined at regular intervals using a tail cuff, and proteinuria and urine electrolyte composition are determined by collecting the urine in metabolic cages. At the end of the experiment, haemodynamic parameters (blood pressure, heart rate, inotropism[dp/dt], relaxation time[tau], maximum left ventricular pressure, left ventricular end-diastolic pressure[LVEDP]) are measured, and the weights of heart, kidney and lung are determined, protein elimination and biomarkers (e.g. ANP, RIA Kit RK 005-24, Phoenix Pharmaceuticals, Inc., USA, cGMP, RIA Kit RE29075, IBL International GmbH, Hamburg, Germany, renin, angiotensin I, RIA Kit CA-1533, DiaSorin S.p.A., Italy, and aldosterone, P2714, DiaSorin S.p.A., Italy) and gene expression of biomarkers by RT/TaqMan PCR following RNA isolation from cardiac and renal tissue are determined.
(§4) Cardiac and cardiovascular disorders as well as renal and cardiorenal disorders are characterized by high patient morbidity and also high mortality. This morbidity and mortality, together with various risk factors such as hypertension, can be reproduced very accurately in the above-described animal model of the L-NAME-treated renin transgenic rat. Therefore, this animal model, for example, was used to investigate MR antagonists such as, for example, finerenone according to the compound of the formula (IV) and sGC activators such as, for example, the compound of the formula (X), and combinations of both: […]
For example, the MR antagonist finerenone, corresponding to the compound of the formula (IV), and the sGC activator, corresponding to the compound of the formula (X), were tested on their own and in combinations in TGR(mRen2)27 renin rats aged 10 to 20 weeks. In addition, the nitrogen monoxide synthase inhibitor L-NAME was administered via the drinking water in a concentration of 30 to 100 mg/l. During the entire experiment, drinking water and feed were available ad libitum to the animals. The substances were administered daily by gavage for 4-10 weeks. Animals treated in the same way but receiving only the solvent for the test substance served as placebo group. In the test series, in addition to placebo (group A), the MR antagonist finerenone (10 mg/kg od) (group B) and the sGC activator corresponding to the compound of the formula (X) (1 mg/kg bid) (group C) on their own and a combination of finerenone (10 mg/kg od)+compound of the formula (X) (1 mg/kg bid) (group D) were administered. In this study, 15 animals were used per group (A, B, C, D) (Table 1):
After 40% of the placebo animals had died—the study was generally terminated once 40-50% of the placebo-treated animals had died, which corresponds to a survival rate of 60-50%—the study was terminated and the survival rates of the individual treatment groups were compared to one another.

[2] = tested on: L-NAME-treated transgenic renin rat (TGR(mRen2)27); assay: Proteinuria (protein/creatinine quotient in urine) in L-NAME-treated renin transgenic rats; assay type: in vivo; conditions: for reduction of proteinuria, measured as protein/creatinine quotient in urine: finerenone 10 mg/kg od, compound of the formula (X) 1 mg/kg bid, alone or combined, versus placebo; for Urinary protein/creatinine quotient, % change vs placebo: proteinuria in % reduction from placebo at the end of the study, mean ± SEM, groups and doses per Table 1
Text: as §1, §2, §3, §4
Here, the quotient of protein excreted in the urine and creatinine excreted in the urine, the so-called protein/creatinine quotient, which can be used as a quantitative measure for the kidney damage, is determined.

Structure (SMILES) | Mortality [1] | survival rate [1] | animals died during the study period [1] | reduction of proteinuria, measured as protein/creatinine quotient in urine [2] | Urinary protein/creatinine quotient, % change vs placebo [2]
C[C@H]([C@H](C(=O)Nc1cc([C@@H](CC(=O)O)C2CC2)ccc1Cl)c1ccc(Cl)cc1)C(F)(F)F [compound of the formula (X), (3S)-3-(4-chloro-3-{[(2S,3R)-2-(4-chlorophenyl)-4,4,4-trifluoro-3-methylbutanoyl]amino}phenyl)-3-cyclopropylpropanoic acid] | 27% | 73% | 27% | 8% | −8 + 20%
CCOc1ncc(C)c2c1[C@H](c1ccc(C#N)cc1OC)C(C(N)=O)=C(C)N2 [finerenone, (S)-4-(4-cyano-2-methoxyphenyl)-5-ethoxy-2,8-dimethyl-1,4-dihydro-1,6-naphthyridine-3-carboxamide] | 20% | 80% | 20% | 58% | −58 + 16%
